Test results published in patent US20220009945A1, “NOVEL UREA 6,7-DIHYDRO-4H-THIAZOLE[5,4-C]PYRIDINES ACTIVE AGAINST THE HEPATITIS B VIRUS (HBV)” (AICURIS GMBH & CO. KG, priority 2018, published 2022).
pEC50: −log10 of the molar value. Structures can show the parent of a compound that is named as a salt.

Tested on: HBV
Details: Hepatitis B virus, HePAD38, 144 h, read-out: Cell Activity

SMILES | pEC50
O=C(Nc1ccc(F)c(Cl)c1)N1CCc2nc(NCC3CCOC3)sc2C1 (stereo not drawn) [Example 5, N-(3-chloro-4-fluorophenyl)-2-{[(oxolan-3-yl)methyl]amino}-4H,5H,6H,7H-[1,3]thiazolo [5,4-c]pyridine-5-carboxamide] | > 6.00
Nc1nc2c(s1)CN(C(=O)Nc1ccc(F)c(Cl)c1)CC2 [Example 1, 2-amino -N-(3-chloro-4-fluorophenyl)-4H,5H,6H,7H-[1,3] thiazolo[5,4-c]pyridine-5-carboxamide] | > 6.00
O=C(Nc1ccc(F)c(Cl)c1)N1CCc2nc(NC(=O)[C@H]3C[C@H](O)C3)sc2C1 [Example 20, N-(3-chloro-4-fluorophenyl)-2-[(1r,3r)-3-hydroxycyclobutaneamido]-4H,5H,6H,7H-[1,3]thiazolo[5,4-c]pyridine-5-carboxamide] | > 6.00
C[C@H]1Cc2nc(NC(=O)[C@H]3C[C@H](O)C3)sc2CN1C(=O)Nc1ccc(F)c(Cl)c1 [Example 21, (6S)-N-(3-chloro-4-fluorophenyl)-6-methyl-2-[(1r,3r)-3-hydroxycyclobutaneamido]-4H,5H,6H,7H-[1,3]thiazolo[5,4-c]pyridine-5-carboxamide] | > 6.00
O=C(Nc1ccc(F)c(Cl)c1)N1CCc2nc(N[C@H]3C[C@H](O)C3)sc2C1 [Example 2, N-(3-chloro-4-fluorophenyl)-2-{[(1r,3r)-3-hydroxycyclobutyl]amino}-4H,5H,6H,7H-[1,3]thiazolo[5,4-c]pyridine-5-carboxamide] | > 6.00
O=C(Nc1ccc(F)c(Cl)c1)N1CCc2nc(NCC3(O)CC(F)(F)C3)sc2C1 [Example 9, N-(3-chloro-4-fluorophenyl)-2-{[(3,3-difluoro-1-hydroxycyclobutyl)methyl]amino}-4H,5H,6H,7H-[1,3]thiazolo[5,4-c]pyridine-5-carboxamide] | > 6.00
Cc1cc(NC(=O)N2CCc3nc(NCC4(O)CCC4)sc3C2)ccc1F [Example 13, N-(4-fluoro-3-methylphenyl)-2-{[(1-hydroxycyclobutyl)methyl]amino}-4H,5H,6H,7H-[1,3]thiazolo[5,4-c]pyridine-5-carboxamide] | > 6.00
O=C(Nc1ccc(F)c(Cl)c1)N1CCc2nc(NC3(CO)CCC3)sc2C1 [Example 3, N-(3-chloro-4-fluorophenyl)-2-{[1-(hydroxymethyl)cyclobutyl]amino}-4H,5H,6H,7H-[1,3]thiazolo[5,4-c]pyridine-5-carboxamide] | > 6.00
O=C(Nc1ccnc(C(F)F)c1)N1CCc2nc(NCC3(O)CCC3)sc2C1 [Example 19, N-[2-(difluoromethyl)pyridin-4-yl]-2-{[(1-hydroxycyclobutyl)methyl]amino}-4H,5H,6H,7H-[1,3]thiazolo[5,4-c]pyridine-5-carboxamide] | 5.00 to 6.00
O=C(Nc1ccnc(C(F)F)c1)N1CCc2nc(N[C@H]3C[C@H](O)C3)sc2C1 [Example 16, N-[2-(difluoromethyl)pyridin-4-yl]-2-{[(1r,3r)-3-hydroxycyclobutyl]amino}-4H,5H,6H,7H-[1,3]thiazolo[5,4-c]pyridine-5-carboxamide] | 5.00 to 6.00
O=C(Nc1ccc(F)c(Cl)c1)N1CCc2nc(NCC3(O)CCC3)sc2C1 [Example 6, N-(3-chloro-4-fluorophenyl)-2-{[(1-hydroxycyclobutyl)methyl]amino}-4H,5H,6H,7H-[1,3]thiazolo[5,4-c]pyridine-5-carboxamide] | > 6.00
O=C(Nc1ccc(F)c(Cl)c1)N1CCc2nc(NC3CCOC3)sc2C1 (stereo not drawn) [Example 4, N-(3-chloro-4-fluorophenyl)-2-[(oxolan-3-yl)amino]-4H,5H,6H,7H-[1,3]thiazolo[5,4-c]pyridine-5-carboxamide] | > 6.00
O=C(Nc1ccc(F)c(Cl)c1)N1CCc2nc(NCC3(O)CC3)sc2C1 [Example 12, N-(3-chloro-4-fluorophenyl)-2-{[(1-hydroxycyclopropyl)methyl]amino}-4H,5H,6H,7H-[1,3]thiazolo[5,4-c]pyridine-5-carboxamide] | > 6.00
O=C(Nc1nc2c(s1)CN(C(=O)Nc1ccc(F)c(Cl)c1)CC2)C1CCC(O)CC1 (stereo not drawn) [Example 15, N-(3-chloro-4-fluorophenyl)-2-(4-hydroxycyclohexaneamido)-4H,5H,6H,7H-[1,3]thiazolo[5,4-c]pyridine-5-carboxamide] | > 6.00
O=C(Nc1nc2c(s1)CN(C(=O)Nc1ccc(F)c(Cl)c1)CC2)C1CCOCC1 [Example 11, N-(3-chloro-4-fluorophenyl)-2-(oxane-4-amido)-4H,5H,6H,7H-[1,3]thiazolo[5,4-c]pyridine-5-carboxamide] | > 6.00
O=C(Nc1ccc(F)c(Cl)c1)N1CCc2nc(N[C@H]3CC[C@@H](O)CC3)sc2C1 [Example 7, N-(3-chloro-4-fluorophenyl)-2-{[(1s,4s)-4-hydroxycyclohexyl]amino}-4H,5H,6H,7H-[1,3]thiazolo[5,4-c]pyridine-5-carboxamide] | > 6.00
CC1(S(=O)(=O)Nc2nc3c(s2)CN(C(=O)Nc2ccc(F)c(Cl)c2)CC3)CC1 [Example 18, N-(3-chloro-4-fluorophenyl)-2-(1-methylcyclopropanesulfonamido)-4H,5H,6H,7H-[1,3]thiazolo[5,4-c]pyridine-5-carboxamide] | 5.00 to 6.00
O=C(Nc1ccc(F)c(Cl)c1)N1CCc2nc(NS(=O)(=O)C3CC3)sc2C1 [Example 17, N-(3-chloro-4-fluorophenyl)-2-cyclopropanesulfonamido-4H,5H,6H,7H-[1,3]thiazolo[5,4-c]pyridine-5-carboxamide] | 5.00 to 6.00
CN1CCC(C(=O)Nc2nc3c(s2)CN(C(=O)Nc2ccc(F)c(Cl)c2)CC3)CC1 [Example 8, N-{5-[(3-chloro-4-fluorophenyl)carbamoyl]-4H,5H,6H,7H-[1,3]thiazolo[5,4-c]pyridin-2-yl}-1-methylpiperidine-4-carboxamide formate] | > 6.00
O=C(Nc1nc2c(s1)CN(C(=O)Nc1ccc(F)c(Cl)c1)CC2)C1CCOC1 (stereo not drawn) [Example 10, N-(3-chloro-4-fluorophenyl)-2-(oxolane-3-amido)-4H,5H,6H,7H-[1,3]thiazolo[5,4-c]pyridine-5-carboxamide] | > 6.00
N#Cc1cc(NC(=O)N2CCc3nc(NCC4(O)CCC4)sc3C2)ccc1F [Example 14, N-(3-cyano-4-fluorophenyl)-2-{[(1-hydroxycyclobutyl)methyl]amino}-4H,5H,6H,7H-[1,3]thiazolo[5,4-c]pyridine-5-carboxamide] | > 6.00
